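The compound was tested at five concentrations on cells cultured in 96-well plates, with a 48-hour exposure period. Here, GI50 denotes the concentration required for 50% inhibition of growth.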 Active and inactive are the calls of the source. Cut-off read from the data, not from the text of the source: active = GI50 up to about 1.1 µM and inactive = higher.
Columns and labels:
Experiment in all cases: NCI tumour cell line growth inhibition, 48 h
[1] = system: SNB-19
[2] = system: HT-29
[3] = system: LOX IMVI
[4] = system: SK-OV-3
[5] = system: HL-60
[6] = system: 786-0
[7] = system: SK-MEL-2
[8] = system: SW-620
[9] = system: EKVX
[10] = system: OVCAR-3
[11] = system: UACC-62
[12] = system: SR
[13] = system: Malme-3M
[14] = system: SF-268
[15] = system: K562
[16] = system: HCT-116
[17] = system: NCI-H522
[18] = system: UACC-257
[19] = system: HCC 2998
[20] = system: OVCAR-5

Measured: GI50

CCSC1=N/C(=C/c2ccccc2O)C(=O)N1
inactive: [1] > 100 µM | [2] > 100 µM | [3] 52 µM | [4] 31.7 µM | [5] > 100 µM | [6] 28.5 µM | [7] > 100 µM | [8] > 100 µM | [9] > 100 µM | [10] > 100 µM | [11] > 100 µM | [12] 63 µM | [13] > 100 µM | [14] 83.2 µM | [15] 61 µM | [16] > 100 µM | [17] > 100 µM | [18] > 100 µM | [19] > 100 µM | [20] > 100 µM

O=C(Nc1ccc(Cl)cc1)c1cc(S(=O)(=O)Nc2n[nH]c(=O)[nH]2)c(SSc2cc(Cl)c(C(=O)Nc3ccc(Cl)cc3)cc2S(=O)(=O)Nc2n[nH]c(=O)[nH]2)cc1Cl
inactive: [1] > 100 µM | [2] > 100 µM | [3] > 100 µM | [4] > 100 µM | [5] > 100 µM | [6] > 100 µM | [7] > 100 µM | [8] > 100 µM | [9] > 100 µM | [10] > 100 µM | [11] > 100 µM | [12] > 100 µM | [13] > 100 µM | [14] > 100 µM | [15] > 100 µM | [16] > 100 µM | [17] > 100 µM | [18] > 100 µM | [19] > 100 µM | [20] > 100 µM

Cc1nn(C(=O)c2ccncc2)c2c1C(c1ccccc1O)SC(=N)N2 (stereo not given)
inactive: [1] > 10 µM | [2] > 10 µM | [3] > 10 µM | [4] > 10 µM | [5] > 10 µM | [6] > 10 µM | [7] > 10 µM | [8] > 10 µM | [9] > 10 µM | [10] > 10 µM | [11] > 10 µM | [12] > 10 µM | [13] > 10 µM | [14] > 10 µM | [15] > 10 µM | [16] > 10 µM | [17] > 10 µM | [18] > 10 µM | [19] > 10 µM | [20] > 10 µM

O=[N+]([O-])c1cnc(N(CCO)CCO)s1
inactive: [1] > 100 µM | [2] > 100 µM | [3] > 100 µM | [4] > 100 µM | [5] > 100 µM | [6] > 100 µM | [7] > 100 µM | [8] > 100 µM | [9] > 100 µM | [10] > 100 µM | [11] > 100 µM | [12] > 100 µM | [13] > 100 µM | [14] > 100 µM | [15] > 100 µM | [16] > 100 µM | [17] > 100 µM | [18] > 100 µM | [19] > 100 µM | [20] > 100 µM

CSC(=S)Nc1cc(C)ccn1
inactive: [1] > 100 µM | [2] > 100 µM | [3] > 100 µM | [4] > 100 µM | [5] > 100 µM | [6] 75.2 µM | [7] 93.5 µM | [8] > 100 µM | [9] > 100 µM | [10] 40.6 µM | [11] > 100 µM | [12] 78.2 µM | [13] 61.4 µM | [14] 70 µM | [15] 62.5 µM | [16] 70.5 µM | [17] 40.7 µM | [18] > 100 µM | [19] > 100 µM | [20] > 100 µM

C=C1C(=O)O[C@@H]2/C=C(/C)[C@@H](OC(C)=O)C[C@@H](O)/C(C)=C\[C@@H](OC(=O)[C@]3(C)O[C@@H]3C)[C@@H]12
inactive: [1] 47.4 µM | [2] 15.8 µM | [3] 7.26 µM | [4] 45.8 µM | [5] 2.39 µM | [6] 4.57 µM | [7] 17.2 µM | [8] 5.98 µM | [9] 11 µM | [10] 11.6 µM | [11] 16.1 µM | [12] 4.6 µM | [13] 2.86 µM | [14] 18.9 µM | [15] 3.34 µM | [16] 3.89 µM | [17] 1.28 µM | [18] 15.7 µM | [19] 18.2 µM | [20] 18.6 µM

CN(/N=C/c1ccccc1C(=O)O)C1=NCCCCN1
inactive: [1] > 100 µM | [2] > 100 µM | [3] > 100 µM | [4] > 100 µM | [5] > 100 µM | [6] > 100 µM | [7] > 100 µM | [8] > 100 µM | [9] > 100 µM | [10] > 100 µM | [11] > 100 µM | [12] > 100 µM | [13] > 100 µM | [14] > 100 µM | [15] > 100 µM | [16] > 100 µM | [17] 19.1 µM | [18] > 100 µM | [19] > 100 µM | [20] > 100 µM

— ChEMBL document CHEMBL1201862, “PubChem BioAssay data set” (2004)
